Data on 14 compounds can be found in patent US11358972B2, “Pentacyclic heterocycles” (Eisai R&D Management Co., Ltd., priority 2019, dated 2022).

Test [1] relates to Rat primary septal neuron culture. As to the kind of experiment: Measurement of acetylcholine (ACh) release in the rat primary septal neuron culture system. The test is classed as cell-based. The note with it: 24 h, rat primary septal neurons, with NGF, ACh release measured by HPLC one day after compound addition, read-out: Concentration (μM) showing a 20% or more increase from the amount of ACh in the control group. The source says:
Measurement of Acetylcholine (ACh) Release in the Rat Primary Septal Neuron Culture System
(1) Rat Primary Septal Neuron Culture
The septal area was isolated from Sprague-Dawley (SD) rats (Charles River Laboratories Japan, Inc.) at a fetal age of 18 days, and cultured. Specifically, fetuses were removed from pregnant rats under isoflurane anesthesia. The brain was extracted from each fetus, and immersed in ice-cooled L-15 medium (11415-064, Thermo Fisher Scientific). The septal area was dissected from the extracted brain under a stereoscopic microscope. The dissected septal area was treated in 0.25% trypsin (15050-065, Thermo Fisher Scientific) and 0.01% DNase (D5025-150KU, Sigma) at 37° C. for 30 minutes, thereby dispersing the cells. In this case, the enzyme reaction was terminated by adding inactivated horse serum (26050-088, Thermo Fisher Scientific). The enzyme-treated solution was centrifuged at 1000 rpm for 3 minutes, and the supernatant was removed. A medium in an amount of 10 mL was added to the obtained cell mass. The medium used was Dulbecco's Modified Eagle's Medium (044-29765, WAKO) supplemented with N2 supplement (17502-048, Thermo Fisher Scientific), 1 mM sodium pyruvate (11360-070, Thermo Fisher Scientific), and Penicillin-Streptomycin (15140-1221, Thermo Fisher Scientific). The cells of the cell mass to which the medium was added were redispersed by gentle pipetting, and then centrifuged again at 1000 rpm for 3 minutes, and the supernatant was removed. The medium in an amount of 10 mL was added to the obtained cell mass, and the cell dispersion was filtered through a 40-μm nylon mesh (Cell Strainer) to remove the cell mass, thereby obtaining a neuronal cell suspension. The neuronal cell suspension was diluted with the medium, and 10% inactivated bovine serum (26140-079, Thermo Fisher Scientific) and 10% inactivated horse serum were added. Thereafter, 100 μL/well of the suspension was seeded in a 96-well plate (354461, CORNING) pre-coated with poly-D-lysine so that the initial culture density was 1.2×10^5 cells/cm^2. After the seeded cells were cultured under 5% CO2-95% air in a 37° C. incubator for 2 days, the entire medium was replaced with 120 μL of fresh medium, and the cells were subsequently cultured for 5 days.
On the 7th day of culture, compounds were added in the following manner. A solution of the test compound in DMSO was diluted with the medium so that the concentration was 10 times higher than the final concentration. Nerve Growth Factor (450-01, PEPRO TECH, INC.) was prepared at […]. These two solutions were added each in an amount of 15 μL/well, and the mixture was mixed well. The final DMSO concentration was 0.1% or less. Moreover, only DMSO and NGF were added to the control group.
(3) ACh Release Measurement
One day after the compound addition, an amount of ACh release was measured by HPLC in the following manner. A warmed buffer was added at 100 μL/well to the well after the medium was eliminated, and the buffer was immediately removed. Thereafter, a buffer to which 10 μm choline, 10 μm physostigmine, and 6 mM KCl were added was added at 120 μL/well. The buffer was prepared by adding 125 mM NaCl, 25 mM 4-(2-hydroxyethyl)-1-piperazineethanesulfonic acid, 1.2 mM KH2PO4, 1.2 mM MgSO4, 2.2 mM CaCl2 (2H2O), and 10 mM glucose to sterilized water, and the final pH of the solution was set to 7.4. After the 96-well plate to which the buffer was added was incubated under 5% CO2-95% air in a 37° C. incubator for 40 minutes, 80 μL of buffer was collected. An internal standard solution IPHC (5×10^−7 M) was added in an amount of 6 μL to the collected buffer, and the buffer was transferred to a tube for HPLC measurement and subjected to HPLC measurement. […]

Test [2] concerns Choline Acetyltransferase (ChAT) mRNA. As to the kind of experiment: Measurement of choline acetyltransferase (ChAT) mRNA expression levels in the rat septal area. The test is classed as in vivo. The following applies: po, SD male rats, medial septum, 24 hours after administration, read-out: Amount (%) increased from the amount of ChAT mRNA expression levels in the vehicle administration group; for change in vivo at 3 mg/kg: 3 mg/kg orally; for change in vivo at 1 mg/kg: 1 mg/kg orally. As for the experimental part:
Measurement of Choline Acetyltransferase (ChAT) mRNA Expression Levels in the Rat Septal Area (1) Compound Administration
In this study, Sprague-Dawley male rats (Charles River Laboratories Japan, Inc.) with a body weight of about 250 to 350 g were used. The test compound was dissolved in 0.01 mol/L hydrochloric acid, and orally administered.
At 24 hours after the administration of the compound, the whole brain tissue was collected under pentobarbital anesthesia. The medial septum was isolated from whole brain on ice and frozen with liquid nitrogen, and then stored at −80° C.
(3) Measurement of ChAT mRNA Expression Levels
For RNA purification, RNeasy™ Plus Mini Kit (#74136: QIAGEN) was used in this study. RNA purification was performed by the method described in the kit After RNA purification, the total RNA concentration was measured by using QIAxpert Instrument (QIAGEN). cDNA was synthesized using SuperScript™ VILO™ cDNA Synthesis Kit (#11754: Thermo Fisher Scientific). The synthesis of cDNA was performed by the method described in the kit. The synthesized cDNA was diluted 4 times with RNase free water, and the diluted cDNA solution was used as a sample. Taqman™ Universal PCR Master Mix (#4304437: Thermo Fisher Scientific), Taqman™ Gene Expression Assays, INVENTORIED (#4331182: Thermo Fisher Scientific), RNase free water, and the cDNA solution were mixed in amounts of 10 μL, 1 μL, 4 μL, and 5 μL, respectively, and the resulting mixture was used as a measurement sample solution. Quantitative polymerase chain reaction (qPCR) was conducted using ABI PRISM™ 7900HT (Thermo Fisher Scientific) by a fluorescence probe method. Analysis was performed by SDS 2.4 (Thermo Fisher Scientific). The results were calculated by the percentage of the amount of ChAT mRNA expression levels in the compound administration group increased from the amount of ChAT mRNA expression levels in the vehicle administration group.

On to `CN1Cc2nc3sc4c(c3c(=O)n2[C@@H]2CCC[C@@H]2C1=O)CCN(CC(F)F)C4` [Example 7, (3aS,14aR)-10-(2,2-difluoroethyl)-5-methyl-2,3,3a,5,6,9,10,11,12,14a-decahydro-1H-cyclopenta[f]pyrido[4″,3″:4′,5′]thieno[2′,3′:4,5]pyrimido[1,2-a][1,4]diazepine-4,13-dione], for which the minimal effective concentration in test [1] turned out to be 0.3 µM. Further, the change in vivo at 3 mg/kg in test [2] is 76.6%.

As to `CN1Cc2nc3c(oc4cc(F)ccc43)c(=O)n2[C@@H]2CCC[C@@H]2C1=O` [Example 3, (3aS,14aR)-10-fluoro-5-methyl-3,3a,5,6-tetrahydro-1H-benzofuro[3′,2′:4,5]pyrimido[1,2-a]cyclopenta[f][1,4]diazepine-4,13(2H,14aH)-dione], the minimal effective concentration in test [1] is 0.03 µM. Besides, in test [2], the change in vivo at 1 mg/kg was determined as 53.7%.

On to `CN1Cc2nc3c(oc4ccccc43)c(=O)n2[C@@H]2CCC[C@@H]2C1=O` [Example 1, (3aS,14aR)-5-methyl-3,3a,5,6-tetrahydro-1H-benzofuro[3′,2′:4,5]pyrimido[1,2-a]cyclopenta[f][1,4]diazepine-4,13(2H,14aH)-dione], for which the minimal effective concentration in test [1] is 0.03 µM. For the same compound, the change in vivo at 10 mg/kg in test [2] (10 mg/kg orally) was 76%.

With `COCCN1CCc2c(sc3nc4n(c(=O)c23)[C@@H]2CCC[C@@H]2C(=O)N(C)C4)C1` [Example 8], the minimal effective concentration in test [1] was found to be 0.03 µM. The change in vivo at 3 mg/kg in test [2] turned out to be 71.8%.

For the compound `CN1CCc2c(sc3nc4n(c(=O)c23)C(C)(C)CC(=O)N2CCCC42)C1` (single isomer, unassigned; (+)) [Example 2, (+)-7,7,12-trimethyl-1,2,3,6,7,10,11,12,13,15b-decahydropyrido[4″,3″:4′,5′]thieno[2′,3′:4,5]pyrimido[1,2-a]pyrrolo[2,1-c][1,4]diazepine-5,9-dione], in test [1], the minimal effective concentration was 0.03 µM. In addition, the change in vivo at 3 mg/kg in test [2] stood at 53.6%.

With `CN1Cc2nc3c(oc4cc(C(F)(F)F)ccc43)c(=O)n2[C@H]2CCC[C@@H]2C1=O` [Example 12, (3aS,14aS)-5-methyl-10-(trifluoromethyl)-2,3,3a,5,6,14a-hexahydro-1H-benzofuro[3′,2′:4,5]pyrimido[1,2-a]cyclopenta[f][1,4]diazepine-4,13-dione], the minimal effective concentration in test [1] was 0.03 µM. For the same compound, the change in vivo at 1 mg/kg in test [2] came out at 44.7%.

Consider `COCCN1CCc2c(sc3nc4n(c(=O)c23)C(C)(C)CC(=O)N2CCCC42)C1` (single isomer, unassigned; (-)) [Example 13, (−)-12-(2-methoxyethyl)-7,7-dimethyl-1,2,3,6,7,10,11,12,13,15b-decahydro-5H,9H-pyrido[4″,3″:4′,5′]thieno[2′3′:4,5]pyrimido[1,2-a]pyrrolo[2,1-c][1,4]diazepine-5,9-dione], for which the minimal effective concentration in test [1] is 0.03 µM. For the same compound, the change in vivo at 1 mg/kg in test [2] stood at 59.7%.

As for `COCCN1CCc2c(sc3nc4n(c(=O)c23)[C@H]2CCC[C@@H]2C(=O)N(C)C4)C1` [Example 16, (3aS,4aS)-10-(2-methoxyethyl)-5-methyl-2,3,3a,5,6,9,10,11,12,14a-decahydro-1H-cyclopenta[f]pyrido[4″,3″:4′,5′]thieno[2′,3′:4,5]pyrimido[1,2-a][1,4]diazepine-4,13-dione], the minimal effective concentration in test [1] is 0.03 µM. For the same compound, the change in vivo at 3 mg/kg in test [2] worked out at 42.5%.

In the case of `CN1Cc2nc3c(oc4ccccc43)c(=O)n2[C@@H]2CN(CCF)C[C@H]2C1=O` (relative stereo) [Example 17, (−)-(3a,14a-trans)-2-(2-fluoroethyl)-5-methyl-2,3,3a,5,6,14a-hexahydro-1H-benzofuro[3′,2′:4,5]pyrimido[1,2-a]pyrrolo[3,4-f][1,4]diazepine-4,13-dione], in test [1], the minimal effective concentration worked out at 0.03 µM. Moreover, the change in vivo at 3 mg/kg in test [2] amounted to 44.6%.

As for `CN1Cc2nc3c(oc4cc(C(F)(F)F)ccc43)c(=O)n2[C@@H]2CCC[C@H]2C1=O` [Example 6], in test [1], the minimal effective concentration was determined as 0.03 µM. Besides, the change in vivo at 0.3 mg/kg in test [2] (0.3 mg/kg orally) was determined as 67.7%.

Regarding `CN1Cc2nc3c(oc4cc(F)ccc43)c(=O)n2[C@@H]2CCC[C@H]2C1=O` [Example 5, (3aR,14aR)-10-fluoro-5-methyl-3,3a,5,6-tetrahydro-1H-benzofuro[3′,2′:4,5]pyrimido[1,2-a]cyclopenta[f][1,4]diazepine-4,13(2H,14aH)-dione], in test [1], the minimal effective concentration worked out at 0.03 µM. Besides, the change in vivo at 1 mg/kg in test [2] is 54.1%.

As to `CN1CCc2c(sc3nc4n(c(=O)c23)C(C)(C)CC(=O)N2C[C@H](F)C[C@H]42)C1` [Example 10, (2R,15bR)-2-fluoro-7,7,12-trimethyl-1,2,3,6,7,10,11,12,13,15b-decahydro-5H,9H-pyrido[4″,3″:4′,5′]thieno[2′3′:4,5]pyrimido[1,2-a]pyrrolo[2,1-c][1,4]diazepine-5,9-dione], the minimal effective concentration in test [1] is 0.03 µM. Also, the change in vivo at 1 mg/kg in test [2] came to 50.6%.

`CN1CCc2sc3c(=O)n4c(nc3c2C1)CN(C)C(=O)[C@@H]1CCC[C@H]14` [Example 14, (3aR,14aR)-5,9-dimethyl-2,3,3a,5,6,8,9,10,11,14a-decahydro-1H-cyclopenta[f]pyrido[3″,4″:4′,5′]thieno[3′,2′:4,5]pyrimido[1,2-a][1,4]diazepine-4,13-dione]: the minimal effective concentration in test [1] is 0.03 µM. In test [2], the change in vivo at 1 mg/kg worked out at 63.6%.

Consider `CN1C[C@H]2C(=O)N(C)Cc3nc4sc5c(c4c(=O)n3[C@H]2C1)CC[C@@H](F)C5` [Example 15, (3aR,10R,14aR)-10-fluoro-2,5-dimethyl-2,3,3a,5,6,9,10,11,12,14a-decahydro-1H-benzo[4′,5′]thieno[2′,3′:4,5]pyrimido[1,2-a]pyrrolo[3,4-f][1,4]diazepine-4,13-dione], for which the minimal effective concentration in test [1] amounted to 0.3 µM. For the same compound, the change in vivo at 1 mg/kg in test [2] was 49%.
